Data from ChEMBL document CHEMBL1158551, “Click reaction synthesis of carbohydrate derivatives from ristocetin aglycon with antibacterial and antiviral activity” (Bioorg Med Chem Lett, 2010).
pEC50: −log10 of the molar value. In brackets after ≈: the same amount, converted by molar mass. Activity calls are given as the source filed them. No cut-off for these calls is given here.

Experiments:
Enterococcus faecalis [1] = assay: Antibacterial activity against vancomycin and teicoplanin-resistant Enterococcus faecalis 15376 expressing VanA gene by broth microdilution method; format: functional
Staphylococcus aureus [2] = assay: Antibacterial activity against methicillin-[…] Staphylococcus aureus ATCC 29213 by broth microdilution method; format: functional
Staphylococcus aureus [3] = assay: Antibacterial activity against methicillin-[…] Staphylococcus aureus ATCC 33591 by broth microdilution method; format: functional
Influenza A virus [4] = assay: Antiviral activity against Influenza A virus H3N2 assessed as inhibition of viral induced cytopathic effect; format: functional, organism-based
Enterococcus faecalis [5] = assay: Antibacterial activity against vancomycin-resistant and teicoplanin-sensitive Enterococcus faecalis ATCC 5129 expressing VanB gene by broth microdilution method; format: functional
Influenza A virus [6] = assay: Antiviral activity against influenza A virus H1N1 assessed as cell viability by cell based MTS assay; format: functional, organism-based
Influenza A virus [7] = assay: Antiviral activity against influenza A virus H1N1 assessed as inhibition of viral induced cytopathic effect; format: functional, organism-based
Influenza B virus [8] = assay: Antiviral activity against influenza B virus assessed as inhibition of viral induced cytopathic effect; format: functional, organism-based
[9] = tested on: Staphylococcus epidermidis; assay: Antibacterial activity against Staphylococcus epidermidis by broth microdilution method; format: functional
Bacillus subtilis = assay: Antibacterial activity against Bacillus subtilis ATCC 6633 by broth microdilution method; format: functional
Enterococcus faecalis [10] = assay: Antibacterial activity against vancomycin and teicoplanin-sensitive Enterococcus faecalis ATCC 29212 by broth microdilution method; format: functional
[11] = tested on: Staphylococcus epidermidis; assay: Antibacterial activity against biofilm positive Staphylococcus epidermidis ATCC 35984; format: functional
Influenza A virus [12] = assay: Antiviral activity against Influenza A virus H3N2 assessed as cell viability by cell based MTS assay; format: functional, organism-based
Platelet = assay: Inhibition of ristocetin-induced platelet aggregation at 0.1 mg/ml; format: functional, cell-based
Influenza B virus [13] = assay: Antiviral activity against influenza B virus assessed as cell viability by cell based MTS assay; format: functional, organism-based
[14] = Toxicity assessed as increase of ristocetin-induced platelet aggregation; format: cell-based

SMILES | MBC (Enterococcus faecalis [1]) | MIC (Enterococcus faecalis [1]) | MIC (Staphylococcus aureus [2]) | MBC (Staphylococcus aureus [3]) | MIC (Staphylococcus aureus [3]) | pEC50 (Influenza A virus [4]) | MBC (Enterococcus faecalis [5]) | MIC (Enterococcus faecalis [5]) | pEC50 (Influenza A virus [6]) | pEC50 (Influenza A virus [7]) | pEC50 (Influenza B virus [8]) | MBC [9] | MIC [9] | MBC (Bacillus subtilis) | MIC (Bacillus subtilis) | MBC (Enterococcus faecalis [10]) | MIC (Enterococcus faecalis [10]) | MBC [11] | pEC50 (Influenza A virus [12]) | pEC50 (Influenza B virus [13]) | other results
COC(=O)[C@@H]1NC(=O)[C@H]2NC(=O)[C@H](NC(=O)[C@@H]3NC(=O)[C@H]4NC(=O)[C@H](NC(=O)[C@H](n5cc(CO[C@H]6O[C@H](CO)[C@@H](O)[C@H](O)[C@H]6O)nn5)c5ccc(O)c(c5)Oc5cc4cc(O)c5C)[C@H](O)c4ccc(cc4)Oc4cc3cc(c4O)Oc3ccc(cc3)[C@H]2O)c2ccc(O)c(c2)-c2c(O)cc(O)cc21 | 256 µg/mL (≈ 180 µM) | 4 µg/mL (≈ 2.82 µM) | 2 µg/mL (≈ 1.41 µM) | 128 µg/mL (≈ 90.2 µM) | 2 µg/mL (≈ 1.41 µM) | ≤ 4.35 | 256 µg/mL (≈ 180 µM) | 8 µg/mL (≈ 5.64 µM) | 4.80 | 4.85 | 4.49 | 4 µg/mL (≈ 2.82 µM) | 4 µg/mL (≈ 2.82 µM) | 8 µg/mL (≈ 5.64 µM) | 2 µg/mL (≈ 1.41 µM) | 256 µg/mL (≈ 180 µM) | 4 µg/mL (≈ 2.82 µM) | 4 µg/mL (≈ 2.82 µM) | ≤ 4.52 | 4.48 | MBC (Staphylococcus aureus [2]): 256 µg/mL (≈ 180 µM); MIC [11]: 2 µg/mL (≈ 1.41 µM); inhibition (Platelet): Active
COC(=O)[C@@H]1NC(=O)[C@H]2NC(=O)[C@H](NC(=O)[C@@H]3NC(=O)[C@H]4NC(=O)[C@H](NC(=O)[C@H](n5cc(CO[C@H]6O[C@H](CO)[C@@H](O)[C@H](O)[C@@H]6O)nn5)c5ccc(O)c(c5)Oc5cc4cc(O)c5C)[C@H](O)c4ccc(cc4)Oc4cc3cc(c4O)Oc3ccc(cc3)[C@H]2O)c2ccc(O)c(c2)-c2c(O)cc(O)cc21 | 64 µg/mL (≈ 45.1 µM) | 16 µg/mL (≈ 11.3 µM) | 2 µg/mL (≈ 1.41 µM) | 16 µg/mL (≈ 11.3 µM) | 4 µg/mL (≈ 2.82 µM) | ≤ 4.35 | 256 µg/mL (≈ 180 µM) | 16 µg/mL (≈ 11.3 µM) | 4.66 | 5.00 | ≤ 4.35 | 8 µg/mL (≈ 5.64 µM) | 4 µg/mL (≈ 2.82 µM) | 4 µg/mL (≈ 2.82 µM) | 4 µg/mL (≈ 2.82 µM) | 256 µg/mL (≈ 180 µM) | 8 µg/mL (≈ 5.64 µM) | 8 µg/mL (≈ 5.64 µM) | ≤ 4.34 | ≤ 4.30 | MIC [11]: 4 µg/mL (≈ 2.82 µM); inhibition (Platelet): inactive
COC(=O)[C@H]1NC(=O)[C@H]2NC(=O)[C@H](NC(=O)[C@@H]3NC(=O)[C@H]4NC(=O)[C@H](NC(=O)[C@H](n5cc(CO[C@@H]6O[C@@H](C)[C@H](O)[C@@H](O)[C@H]6O)nn5)c5ccc(O)c(c5)Oc5cc4cc(O)c5C)[C@H](O)c4ccc(cc4)Oc4cc3cc(c4O)Oc3ccc(cc3)[C@H]2O)c2ccc(O)c(c2)-c2c(O)cc(O)cc21 | – | – | – | – | – | < 4.00 | – | – | < 4.00 | < 4.00 | < 4.00 | – | – | – | – | – | – | – | < 4.00 | < 4.00 | Activity [14]: Toxic
COC(=O)[C@@H]1NC(=O)[C@H]2NC(=O)[C@H](NC(=O)[C@@H]3NC(=O)[C@H]4NC(=O)[C@H](NC(=O)[C@H](n5cc(CO[C@H]6O[C@H](CO)[C@@H](O[C@H]7O[C@H](CO)[C@@H](O)[C@H](O)[C@H]7O)[C@H](O)[C@H]6O)nn5)c5ccc(O)c(c5)Oc5cc4cc(O)c5C)[C@H](O)c4ccc(cc4)Oc4cc3cc(c4O)Oc3ccc(cc3)[C@H]2O)c2ccc(O)c(c2)-c2c(O)cc(O)cc21 | 256 µg/mL (≈ 162 µM) | 8 µg/mL (≈ 5.06 µM) | 4 µg/mL (≈ 2.53 µM) | 256 µg/mL (≈ 162 µM) | 2 µg/mL (≈ 1.27 µM) | < 4.00 | 256 µg/mL (≈ 162 µM) | 32 µg/mL (≈ 20.2 µM) | 4.70 | 4.80 | 4.28 | 2 µg/mL (≈ 1.27 µM) | 1 µg/mL (≈ 0.633 µM) | 4 µg/mL (≈ 2.53 µM) | 4 µg/mL (≈ 2.53 µM) | 256 µg/mL (≈ 162 µM) | 4 µg/mL (≈ 2.53 µM) | 8 µg/mL (≈ 5.06 µM) | < 4.00 | 4.21 | MBC (Staphylococcus aureus [2]): 256 µg/mL (≈ 162 µM); MIC [11]: 4 µg/mL (≈ 2.53 µM); inhibition (Platelet): Active
COC(=O)[C@@H]1NC(=O)[C@H]2NC(=O)[C@H](NC(=O)[C@@H]3NC(=O)[C@H]4NC(=O)[C@H](NC(=O)[C@H](n5cc(CO[C@H]6O[C@H](CO)[C@@H](O)[C@H](O)[C@H]6NC(C)=O)nn5)c5ccc(O)c(c5)Oc5cc4cc(O)c5C)[C@H](O)c4ccc(cc4)Oc4cc3cc(c4O)Oc3ccc(cc3)[C@H]2O)c2ccc(O)c(c2)-c2c(O)cc(O)cc21 | 256 µg/mL (≈ 175 µM) | 8 µg/mL (≈ 5.48 µM) | 2 µg/mL (≈ 1.37 µM) | 4 µg/mL (≈ 2.74 µM) | 4 µg/mL (≈ 2.74 µM) | ≤ 4.35 | 256 µg/mL (≈ 175 µM) | 16 µg/mL (≈ 11 µM) | 5.06 | 5.05 | 4.49 | 4 µg/mL (≈ 2.74 µM) | 2 µg/mL (≈ 1.37 µM) | 8 µg/mL (≈ 5.48 µM) | 4 µg/mL (≈ 2.74 µM) | 256 µg/mL (≈ 175 µM) | 8 µg/mL (≈ 5.48 µM) | 2 µg/mL (≈ 1.37 µM) | ≤ 4.14 | 4.40 | MBC (Staphylococcus aureus [2]): 2 µg/mL (≈ 1.37 µM); MIC [11]: 2 µg/mL (≈ 1.37 µM); inhibition (Platelet): inactive
